In patent US10501518B2 (priority 2013, dated 2019):
Starred links: 1 amine or outer side, 2 acyl side, 3 side chain; linkers in the order of their positions; H or OH if unused. Non-standard residues stand in square brackets, D forms with d. Residues, ends and D or L forms follow the SMILES beside them. X13 = O=C([C@H]1CNC[C@@H]1N[*:1])[*:2]; β3hA = C[C@H](N)CC(=O)O

Columns and labels:
Type in all cases: cell-based
[1] = target: T1, delNT PTHR1 (Homo sapiens, UniProt Q03431, DEL24-181); experiment: cAMP-inducing potency at truncated receptor delNT PTHR1; settings: for Fold PTH, nM (deINT PTHR1): EC50 relative to PTH(1-34)
T1 construct: expressed in transfected cells
T1 sequence (Q03431 with tags, fused parts or gaps DEL24-181): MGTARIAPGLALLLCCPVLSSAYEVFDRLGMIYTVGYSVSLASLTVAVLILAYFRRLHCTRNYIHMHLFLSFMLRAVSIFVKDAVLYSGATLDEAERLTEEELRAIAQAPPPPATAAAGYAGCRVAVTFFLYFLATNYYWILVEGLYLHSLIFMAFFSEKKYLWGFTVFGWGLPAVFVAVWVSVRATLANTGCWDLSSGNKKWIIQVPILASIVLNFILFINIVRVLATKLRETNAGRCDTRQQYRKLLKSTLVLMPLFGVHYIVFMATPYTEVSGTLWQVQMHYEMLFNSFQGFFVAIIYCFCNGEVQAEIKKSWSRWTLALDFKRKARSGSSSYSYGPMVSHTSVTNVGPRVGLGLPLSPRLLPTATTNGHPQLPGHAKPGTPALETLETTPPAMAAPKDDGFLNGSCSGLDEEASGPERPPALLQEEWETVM

[2] = target: T2, WT human PTHR-1 (Homo sapiens, UniProt Q03431); experiment: cAMP GloSensor dose-response in GP-2.3 cells expressing human PTHR-1; settings: Table 8; for Fold PTH, nM (hPTHR1): EC50 relative to PTH(1-34)
T2 construct: bioactivity of the resulting compound in full-length hPTHR-1 and a truncated version; expressed in transfected cells
T2 sequence (Q03431 27-593): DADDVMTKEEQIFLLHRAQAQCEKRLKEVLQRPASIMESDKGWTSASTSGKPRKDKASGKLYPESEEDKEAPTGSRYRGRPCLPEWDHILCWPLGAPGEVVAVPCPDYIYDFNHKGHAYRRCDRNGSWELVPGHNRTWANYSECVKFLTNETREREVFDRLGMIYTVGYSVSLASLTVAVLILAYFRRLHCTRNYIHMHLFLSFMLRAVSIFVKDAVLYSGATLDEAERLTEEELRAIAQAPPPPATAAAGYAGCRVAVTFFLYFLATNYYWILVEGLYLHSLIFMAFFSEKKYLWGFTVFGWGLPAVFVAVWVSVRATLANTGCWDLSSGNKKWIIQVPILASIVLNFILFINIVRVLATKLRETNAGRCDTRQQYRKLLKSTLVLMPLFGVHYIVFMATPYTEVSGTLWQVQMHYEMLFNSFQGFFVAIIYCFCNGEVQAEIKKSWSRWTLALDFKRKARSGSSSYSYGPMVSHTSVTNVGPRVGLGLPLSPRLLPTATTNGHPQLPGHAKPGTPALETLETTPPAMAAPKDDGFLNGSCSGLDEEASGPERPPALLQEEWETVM
Method: FIGS. 8A, 8B, and 8C constitute a series of graphs depicting cAMP responses in GP-2.3 cells expressing wild-type human parathyroid hormone receptor 1 (PTHR-1-WT). […] Data are means (±SEM) of n>4 experiments, each performed in duplicate.
For cAMP dose-response assays, monolayers of confluent HEK 293 cells were pre-incubated with buffer containing d-luciferin (0.5 mM) in 96 well plates at room temperature until a stable baseline level of luminescence was established (30 min). Varying concentrations of agonist were then added, and the time course of luminescence response was recorded using a Perkin Elmer plate reader following α/β-peptide addition.

[3] = system: PTH2R/PTH1R; experiment: cAMP response selectivity between PTH2R and PTH1R; settings: Table 16; most selective
From the text: Selected analogs containing beta-amino acid substitutions selectively signal through one or the other of the two receptors. Without being bound to any underling biological phenomenon or mechanism, PTHR-2 likely serves an alternative function to PTHR-1 as it is highly expressed in the central nervous system. In contrast, PTHR-1 is highly expressed in bone and kidney, but not in the CNS. The analogs disclosed herein are thus useful as therapeutic compounds that a specific agonists or antagonists of PTHR-1 and PTHR-2.

Row | Compound | cAMP-inducing potency in delNT PTHR-1, in words [1] | Fold PTH, nM (hPTHR1) [2] | Fold PTH, nM (deINT PTHR1) ([1]; Table 8) | further results
1 | CC[C@H](C)[C@H](NC(=O)[C@H](CCC(=O)O)NC(=O)[C@H](CO)NC(=O)[C@@H](NC(=O)[C@@H](N)CO)C(C)C)C(=O)N[C@@H](CCC(N)=O)CC(=O)N[C@@H](CC(C)C)C(=O)N[C@@H](CCSC)C(=O)N[C@@H](Cc1c[nH]cn1)C(=O)N[C@@H](CC(N)=O)C(=O)N[C@@H](CC(C)C)C(=O)NCC(=O)N[C@@H](CCCCN)C(=O)N[C@@H](Cc1c[nH]cn1)C(=O)N[C@@H](CC(C)C)C(=O)N[C@@H](CC(N)=O)C(=O)N[C@@H](CO)C(=O)N[C@@H](CCSC)C(=O)N[C@@H](CCC(=O)O)C(=O)N[C@@H](CCCNC(=N)N)C(=O)N[C@H](C(=O)N[C@@H](CCC(=O)O)C(=O)N[C@@H](Cc1c[nH]c2ccccc12)C(=O)N[C@@H](CC(C)C)C(=O)N[C@@H](CCCNC(=N)N)C(=O)N[C@@H](CCCCN)C(=O)N[C@@H](CCCCN)C(=O)N[C@@H](CC(C)C)C(=O)N[C@@H](CCC(N)=O)C(=O)N[C@@H](CC(=O)O)C(=O)N[C@H](C(=O)N[C@@H](Cc1c[nH]cn1)C(=O)N[C@@H](CC(N)=O)C(=O)N[C@@H](Cc1ccccc1)C(N)=O)C(C)C)C(C)C [β^3Gln(6)] | – | 159.7 | 110 | cAMP response PTH2R/PTH1R [3]: 133
2 | CC[C@H](C)[C@H](NC(=O)[C@H](CCC(=O)O)NC(=O)[C@H](CO)NC(=O)[C@@H](NC(=O)C[C@H](C)N)C(C)C)C(=O)N[C@@H](CCC(N)=O)C(=O)N[C@@H](CC(C)C)C(=O)N[C@@H](CCSC)C(=O)N[C@@H](Cc1c[nH]cn1)C(=O)N[C@@H](CC(N)=O)C(=O)N[C@@H](CC(C)C)C(=O)NCC(=O)N[C@@H](CCCCN)C(=O)N[C@@H](Cc1c[nH]cn1)C(=O)N[C@@H](CC(C)C)C(=O)N[C@@H](CC(N)=O)C(=O)N[C@@H](CO)C(=O)N[C@@H](CCSC)C(=O)N[C@@H](CCC(=O)O)C(=O)N[C@@H](CCCNC(=N)N)C(=O)N[C@H](C(=O)N[C@@H](CCC(=O)O)C(=O)N[C@@H](Cc1c[nH]c2ccccc12)C(=O)N[C@@H](CC(C)C)C(=O)N[C@@H](CCCNC(=N)N)C(=O)N[C@@H](CCCCN)C(=O)N[C@@H](CCCCN)C(=O)N[C@@H](CC(C)C)C(=O)N[C@@H](CCC(N)=O)C(=O)N[C@@H](CC(=O)O)C(=O)N[C@H](C(=O)N[C@@H](Cc1c[nH]cn1)C(=O)N[C@@H](CC(N)=O)C(=O)N[C@@H](Cc1ccccc1)C(N)=O)C(C)C)C(C)C [β^3Ala(1)] (H-[β3hA]VSEIQLMHNLGKHLNSMERVEWLRKKLQDVHNF-NH2) | – | 2.2 | 0.4 | EC50 ([2]; cAMP-inducing potency, N-terminal modifications, read-out: hPTHR1 EC50, nM (Means ± SEM)): 0.2 ± 0.09 nM
3 | CC[C@H](C)[C@H](NC(=O)[C@H](CCC(=O)O)NC(=O)[C@H](CO)NC(=O)[C@@H](NC(=O)[C@@H](N)CO)C(C)C)C(=O)N[C@@H](CCC(N)=O)C(=O)N[C@@H](CC(C)C)C(=O)N[C@@H](CCSC)C(=O)N[C@H]1CNC[C@@H]1C(=O)N[C@@H](CC(N)=O)C(=O)N[C@@H](CC(C)C)C(=O)NCC(=O)N[C@@H](CCCCN)C(=O)N[C@@H](Cc1c[nH]cn1)C(=O)N[C@@H](CC(C)C)C(=O)N[C@@H](CC(N)=O)C(=O)N[C@@H](CO)C(=O)N[C@@H](CCSC)C(=O)N[C@@H](CCC(=O)O)C(=O)N[C@@H](CCCNC(=N)N)C(=O)N[C@H](C(=O)N[C@@H](CCC(=O)O)C(=O)N[C@@H](Cc1c[nH]c2ccccc12)C(=O)N[C@@H](CC(C)C)C(=O)N[C@@H](CCCNC(=N)N)C(=O)N[C@@H](CCCCN)C(=O)N[C@@H](CCCCN)C(=O)N[C@@H](CC(C)C)C(=O)N[C@@H](CCC(N)=O)C(=O)N[C@@H](CC(=O)O)C(=O)N[C@H](C(=O)N[C@@H](Cc1c[nH]cn1)C(=O)N[C@@H](CC(N)=O)C(=O)N[C@@H](Cc1ccccc1)C(N)=O)C(C)C)C(C)C [APC(9)] (H-SVSEIQLM[X13]NLGKHLNSMERVEWLRKKLQDVHNF-NH2; N-terminus assumed) | – | – | 87 | hPTHR1 EC50, nM (Means ± SEM) ([2]; cAMP-inducing potency, N-terminal modifications): No activity

Now from value to molecule, other results behind:

Row | cAMP-inducing potency in delNT PTHR-1, in words [1] | Fold PTH, nM (hPTHR1) [2] | Fold PTH, nM (deINT PTHR1) ([1]; Table 8) | Compound | further results
4 | weak or no potency | – | – | CC[C@H](C)[C@H](NC(=O)[C@H](CCC(=O)O)NC(=O)[C@H](CO)NC(=O)[C@@H](NC(=O)[C@@H](N)CO)C(C)C)C(=O)N[C@@H](CCC(N)=O)C(=O)N[C@H](CC(=O)N[C@@H](CCSC)C(=O)N[C@@H](Cc1c[nH]cn1)C(=O)N[C@@H](CC(N)=O)C(=O)N[C@@H](CC(C)C)C(=O)NCC(=O)N[C@@H](CCCCN)C(=O)N[C@@H](Cc1c[nH]cn1)C(=O)N[C@@H](CC(C)C)C(=O)N[C@@H](CC(N)=O)C(=O)N[C@@H](CO)C(=O)N[C@@H](CCSC)C(=O)N[C@@H](CCC(=O)O)C(=O)N[C@@H](CCCNC(=N)N)C(=O)N[C@H](C(=O)N[C@@H](CCC(=O)O)C(=O)N[C@@H](Cc1c[nH]c2ccccc12)C(=O)N[C@@H](CC(C)C)C(=O)N[C@@H](CCCNC(=N)N)C(=O)N[C@@H](CCCCN)C(=O)N[C@@H](CCCCN)C(=O)N[C@@H](CC(C)C)C(=O)N[C@@H](CCC(N)=O)C(=O)N[C@@H](CC(=O)O)C(=O)N[C@H](C(=O)N[C@@H](Cc1c[nH]cn1)C(=O)N[C@@H](CC(N)=O)C(=O)N[C@@H](Cc1ccccc1)C(N)=O)C(C)C)C(C)C)CC(C)C [β^3Leu(7)] | –
5 | weak or no potency | – | – | CC[C@H](C)[C@@H](CC(=O)N[C@@H](CCC(N)=O)C(=O)N[C@@H](CC(C)C)C(=O)N[C@@H](CCSC)C(=O)N[C@@H](Cc1c[nH]cn1)C(=O)N[C@@H](CC(N)=O)C(=O)N[C@@H](CC(C)C)C(=O)NCC(=O)N[C@@H](CCCCN)C(=O)N[C@@H](Cc1c[nH]cn1)C(=O)N[C@@H](CC(C)C)C(=O)N[C@@H](CC(N)=O)C(=O)N[C@@H](CO)C(=O)N[C@@H](CCSC)C(=O)N[C@@H](CCC(=O)O)C(=O)N[C@@H](CCCNC(=N)N)C(=O)N[C@H](C(=O)N[C@@H](CCC(=O)O)C(=O)N[C@@H](Cc1c[nH]c2ccccc12)C(=O)N[C@@H](CC(C)C)C(=O)N[C@@H](CCCNC(=N)N)C(=O)N[C@@H](CCCCN)C(=O)N[C@@H](CCCCN)C(=O)N[C@@H](CC(C)C)C(=O)N[C@@H](CCC(N)=O)C(=O)N[C@@H](CC(=O)O)C(=O)N[C@H](C(=O)N[C@@H](Cc1c[nH]cn1)C(=O)N[C@@H](CC(N)=O)C(=O)N[C@@H](Cc1ccccc1)C(N)=O)C(C)C)C(C)C)NC(=O)[C@H](CCC(=O)O)NC(=O)[C@H](CO)NC(=O)[C@@H](NC(=O)[C@@H](N)CO)C(C)C [β^3Ile(5)] | deINT PTHR1 EC50, nM (Means ± SEM) ([1]; Table 8, truncated receptor lacking Ala^24-Arg^181): No activity
